Results taken from US10457703B2, “Bile acid derivatives as FXR/TGR5 agonists and methods of use thereof” (ENANTA PHARMACEUTICALS, INC., priority 2015, dated 2019).

Molecular target: human FXR (NR1H4) (Homo sapiens (Human), UniProt Q96RI1)
Assay: Human FXR (NR1H4) Assay (Gal4 promoter driven luciferase reporter, Indigo Bioscience kit);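 on Efficacy (%): 100% equals the efficacy of CDCA; efficacy normalized to CDCA set as 100%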
Assay type: cell-based
Settings: for EC50: Human FXR (NR1H4) Assay, potency ranges; for Emax: read-out: Efficacy (%)
Procedure, shortened: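 CHO reporter cells expressing human FXR with an FXR-responsive luciferase reporter, treated with compound doses at 0.2% DMSO. Incubation lasted 22 h at 37 °C before luciferase detection reagent was added. Luminescence was then read.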

Chain of human FXR (NR1H4) (Q96RI1 whole entry, the tested form may be a part): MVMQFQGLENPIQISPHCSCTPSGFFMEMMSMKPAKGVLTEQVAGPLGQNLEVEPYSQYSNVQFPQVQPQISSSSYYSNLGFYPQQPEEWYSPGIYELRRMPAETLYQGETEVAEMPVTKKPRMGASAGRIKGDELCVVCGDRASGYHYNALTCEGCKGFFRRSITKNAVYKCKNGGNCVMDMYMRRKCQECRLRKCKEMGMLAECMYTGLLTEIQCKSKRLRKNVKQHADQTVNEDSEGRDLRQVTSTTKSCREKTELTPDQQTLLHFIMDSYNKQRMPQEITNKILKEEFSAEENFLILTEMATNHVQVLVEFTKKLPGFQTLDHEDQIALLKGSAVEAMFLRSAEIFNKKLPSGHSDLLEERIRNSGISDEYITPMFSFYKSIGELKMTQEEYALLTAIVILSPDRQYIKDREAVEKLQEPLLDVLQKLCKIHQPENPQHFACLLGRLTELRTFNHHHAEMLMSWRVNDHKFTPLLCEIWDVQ

Structure (SMILES): CC[C@H]1[C@@H](O)[C@@H]2[C@H](CC[C@]3(C)[C@@H]([C@H](C)COC(=O)NS(=O)(=O)c4ccc(-c5ccc(OC(F)(F)F)cc5)s4)CC[C@@H]23)[C@@]2(C)CC[C@@H](O)C[C@@H]12 [Example 26]
- EC50: 100 to 1000 nM
- Emax: 206%

Structure (SMILES): CC[C@H]1[C@@H](O)[C@@H]2[C@H](CC[C@]3(C)[C@@H]([C@H](C)CCOC(=O)NS(=O)(=O)c4ncccn4)CC[C@@H]23)[C@@]2(C)CC[C@@H](O)C[C@@H]12 [Example 104-d]
- EC50: 1000 to 10000 nM
- Emax: 35%

Structure (SMILES): CC[C@H]1[C@@H](O)[C@@H]2[C@H](CC[C@]3(C)[C@@H]([C@H](C)COC(=O)NS(=O)(=O)c4ccc(-n5cccn5)nc4)CC[C@@H]23)[C@@]2(C)CC[C@@H](O)C[C@@H]12 [Example 16]
- EC50: < 100 nM
- Emax: 187%

Structure (SMILES): CC[C@H]1[C@@H](O)[C@@H]2[C@H](CC[C@]3(C)[C@@H]([C@H](C)CCOC(=O)NCc4ccc(O)cc4)CC[C@@H]23)[C@@]2(C)CC[C@@H](O)C[C@@H]12 [Example 158]
- EC50: 100 to 1000 nM
- Emax: 240%

Structure (SMILES): CC[C@H]1[C@@H](O)[C@@H]2[C@H](CC[C@]3(C)[C@@H]([C@H](C)COC(=O)NS(=O)(=O)c4ccc(-n5ccnc5)nc4)CC[C@@H]23)[C@@]2(C)CC[C@@H](O)C[C@@H]12 [Example 44-m]
- EC50: < 100 nM
- Emax: 206%

Structure (SMILES): CC[C@H]1[C@@H](O)[C@@H]2[C@H](CC[C@]3(C)[C@@H]([C@H](C)COC(=O)NS(=O)(=O)c4ccc5ccccc5c4)CC[C@@H]23)[C@@]2(C)CC[C@@H](O)C[C@@H]12 [Example 12]
- EC50: < 100 nM
- Emax: 217%

Structure (SMILES): CC[C@H]1[C@@H](O)[C@@H]2[C@H](CC[C@]3(C)[C@@H]([C@H](C)CCOC(=O)NS(=O)(=O)c4ccc(F)c(F)c4)CC[C@@H]23)[C@@]2(C)CC[C@@H](O)C[C@@H]12 [Example 102]
- EC50: < 100 nM
- Emax: 235%

Structure (SMILES): CC[C@H]1[C@@H](O)[C@@H]2[C@H](CC[C@]3(C)[C@@H]([C@H](C)CCOC(=O)NS(=O)(=O)c4cnn(C)c4)CC[C@@H]23)[C@@]2(C)CC[C@@H](O)C[C@@H]12 [Example 82]
- EC50: 1000 to 10000 nM
- Emax: 294%

Structure (SMILES): CC[C@H]1[C@@H](O)[C@@H]2[C@H](CC[C@]3(C)[C@@H]([C@H](C)CCOC(=O)NS(=O)(=O)c4ccccc4OC)CC[C@@H]23)[C@@]2(C)CC[C@@H](O)C[C@@H]12 [Example 84]
- EC50: < 100 nM
- Emax: 270%

Structure (SMILES): CC[C@H]1[C@@H](O)[C@@H]2[C@H](CC[C@]3(C)[C@@H]([C@H](C)CCOC(=O)N4CCOCC4)CC[C@@H]23)[C@@]2(C)CC[C@@H](O)C[C@@H]12 [Example 160]
- EC50: 100 to 1000 nM
- Emax: 142%

Structure (SMILES): CC[C@H]1[C@@H](O)[C@@H]2[C@H](CC[C@]3(C)[C@@H]([C@H](C)CCOC(=O)N[C@H]4CCC[C@H]4O)CC[C@@H]23)[C@@]2(C)CC[C@@H](O)C[C@@H]12 [Example 216]
- EC50: 100 to 1000 nM
- Emax: 478%

Structure (SMILES): CC[C@H]1[C@@H](O)[C@@H]2[C@H](CC[C@]3(C)[C@@H]([C@H](C)CCOC(=O)NS(=O)(=O)c4ccc(C(C)(C)CO)cc4)CC[C@@H]23)[C@@]2(C)CC[C@@H](O)C[C@@H]12 [Example 70]
- EC50: < 100 nM
- Emax: 333%

Structure (SMILES): CC[C@H]1[C@@H](O)[C@@H]2[C@H](CC[C@]3(C)[C@@H]([C@H](C)CCCOC(=O)N(C)OC)CC[C@@H]23)[C@@]2(C)CC[C@@H](O)C[C@@H]12 [Example 149]
- EC50: 1000 to 10000 nM
- Emax: 232%

Structure (SMILES): CC[C@H]1[C@@H](O)[C@@H]2[C@H](CC[C@]3(C)[C@@H]([C@H](C)COC(=O)NS(=O)(=O)c4ccc(-c5ncco5)nc4)CC[C@@H]23)[C@@]2(C)CC[C@@H](O)C[C@@H]12 [Example 44-o]
- EC50: 100 to 1000 nM
- Emax: 292%

Structure (SMILES): CC[C@H]1[C@@H](O)[C@@H]2[C@H](CC[C@]3(C)[C@@H]([C@H](C)CCOC(=O)NS(=O)(=O)c4ccc5ccccc5c4)CC[C@@H]23)[C@@]2(C)CC[C@@H](O)C[C@@H]12 [Example 88]
- EC50: < 100 nM
- Emax: 236%

Structure (SMILES): CC[C@H]1[C@@H](O)[C@@H]2[C@H](CC[C@]3(C)[C@@H]([C@H](C)CCOC(=O)NS(=O)(=O)c4nccs4)CC[C@@H]23)[C@@]2(C)CC[C@@H](O)C[C@@H]12 [Example 104-c]
- EC50: 1000 to 10000 nM
- Emax: 34%

Structure (SMILES): CC[C@H]1[C@@H](O)[C@@H]2[C@H](CC[C@]3(C)[C@@H]([C@H](C)CCOC(=O)N(CCO)CCO)CC[C@@H]23)[C@@]2(C)CC[C@@H](O)C[C@@H]12 [Example 179]
- EC50: 100 to 1000 nM
- Emax: 333%

Structure (SMILES): CC[C@H]1[C@@H](O)[C@@H]2[C@H](CC[C@]3(C)[C@@H]([C@H](C)CCCOC(=O)N4CCC(N5CCCCC5)CC4)CC[C@@H]23)[C@@]2(C)CC[C@@H](O)C[C@@H]12 [Example 148]
- EC50: 1000 to 10000 nM
- Emax: 37%

Structure (SMILES): CC[C@H]1[C@@H](O)[C@@H]2[C@H](CC[C@]3(C)[C@@H]([C@H](C)CCOC(=O)N4CC[C@H](O)C4)CC[C@@H]23)[C@@]2(C)CC[C@@H](O)C[C@@H]12 [Example 181]
- EC50: < 100 nM
- Emax: 382%

Structure (SMILES): CC[C@H]1[C@@H](O)[C@@H]2[C@H](CC[C@]3(C)[C@@H]([C@H](C)CCOC(=O)NCCO)CC[C@@H]23)[C@@]2(C)CC[C@@H](O)C[C@@H]12 [Example 153]
- EC50: 100 to 1000 nM
- Emax: 230%

Structure (SMILES): CC[C@H]1[C@@H](O)[C@@H]2[C@H](CC[C@]3(C)[C@@H]([C@H](C)COC(=O)NS(=O)(=O)c4cnc5ccccc5c4)CC[C@@H]23)[C@@]2(C)CC[C@@H](O)C[C@@H]12 [Example 24]
- EC50: < 100 nM
- Emax: 193%

Structure (SMILES): CC[C@H]1[C@@H](O)[C@@H]2[C@H](CC[C@]3(C)[C@@H]([C@H](C)COC(=O)NS(=O)(=O)c4ccc(-c5ncco5)cc4)CC[C@@H]23)[C@@]2(C)CC[C@@H](O)C[C@@H]12 [Example 44-p]
- EC50: < 100 nM
- Emax: 218%

Structure (SMILES): CC[C@H]1[C@@H](O)[C@@H]2[C@H](CC[C@]3(C)[C@@H]([C@H](C)CCOC(=O)N4CCC(N5CCCCC5)CC4)CC[C@@H]23)[C@@]2(C)CC[C@@H](O)C[C@@H]12 [Example 178]
- EC50: 100 to 1000 nM
- Emax: 196%

Structure (SMILES): CC[C@H]1[C@@H](O)[C@@H]2[C@H](CC[C@]3(C)[C@@H]([C@H](C)CCCOC(=O)NS(=O)(=O)c4ccc(-c5ccccc5)cc4)CC[C@@H]23)[C@@]2(C)CC[C@@H](O)C[C@@H]12 [Example 116]
- EC50: 1000 to 10000 nM
- Emax: 294%

Structure (SMILES): CC[C@H]1[C@@H](O)[C@@H]2[C@H](CC[C@]3(C)[C@@H]([C@H](C)CCOC(=O)NS(=O)(=O)c4ccc(OC(F)(F)F)c(F)c4)CC[C@@H]23)[C@@]2(C)CC[C@@H](O)C[C@@H]12 [Example 104-k]
- EC50: 100 to 1000 nM
- Emax: 180%

Structure (SMILES): CC[C@H]1[C@@H](O)[C@@H]2[C@H](CC[C@]3(C)[C@@H]([C@H](C)CCOC(=O)NCCCC(=O)OC)CC[C@@H]23)[C@@]2(C)CC[C@@H](O)C[C@@H]12 [Example 187]
- EC50: 100 to 1000 nM
- Emax: 421%
